# Laboratory results: paper PMC11149339, “Necessity for higher teicoplanin doses in older adults: a multicenter prospective observational study in China” (BMC Geriatrics, 2024)
# Experiment: Therapeutic drug monitoring of teicoplanin trough concentration (Cmin) during treatment, LC-MS/MS
# Type: in vivo, human
# Settings: for patients with TDM 10–20 mg/L At 8-14d, N (%) / patients with TDM < 10 mg/L At 8-14d, N (%) / patients with TDM > 20 mg/L At 8-14d, N (%) / TDM At 8-14d (teicoplanin trough concentration): 8–14 days after first dose; for TDM At 8-14d (teicoplanin trough concentration) / TDM At 3d (teicoplanin trough concentration): median [IQR], LC-MS/MS; for patients with TDM 10–20 mg/L At 3d, N (%) / patients with TDM < 10 mg/L At 3d, N (%) / patients with TDM > 20 mg/L At 3d, N (%) / TDM At 3d (teicoplanin trough concentration): 3 days after first dose
# Experimental: Teicoplanin (Targocid, Sanofi, Dublin, Ireland) was administered intravenously for 30 min. The prescribed dose regimens were at the discretion of treating physicians, and the recommended regimens were not always followed.
# Blood samples (5 mL) were collected from the elbow into ethylenediaminetetraacetic acid-containing Vacutainers® (Becton Dickinson, Milan, Italy) in the morning before teicoplanin administration and after drug withdrawal. Samples were promptly refrigerated and centrifuged at 2500 × g for 10 min before 2 mL of supernatant was preserved at -20 °C for subsequent analysis. Teicoplanin concentrations were determined using liquid chromatography-tandem mass spectrometry. The linear range of the method was 1.0–100.0 mg/L, and the lower limit of quantification was 1.0 mg/L. The relative standard deviation of intra- and inter-batch precision was ≤ 10%.
# Teicoplanin concentrations were dynamically monitored. Concentrations at 3, ≤ 7, 8–14, and ≥ 15 days after the first dose and within 2 h of the next scheduled dose were recorded as TDM3d, TDM≤7d, TDM8-14d, and TDM≥15d, respectively. Concentrations at 3, ≤ 7, 8–14, and ≥ 15 days after the last teicoplanin dose (withdrawal) were recorded as TDMw3d, TDMw≤7d, TDMw8-14d, and TDMw≥15d. respectively (Fig. 1a). The Cmin target was ≥ 10 mg/L [6, 7, 23]; a concentration < 10 mg/L was considered suboptimal. Average TDM (TDMa) was defined as the mean Cmin after 3 days of treatment.
# [1] = LR-A + MR-A (200 mg once daily, then 200 mg once daily)
# [2] = LR-B + MR-A (400 mg once daily, then 200 mg once daily)
# [3] = LR-B + MR-B (400 mg once daily, then 400 mg once daily)
# [4] = LR-C + MR-B (400 mg at 12-h intervals, then 400 mg once daily)
# [5] = LR-C + MR-C (400 mg at 12-h intervals, then 400 mg twice daily)
substance,measurement,setting,value
Teicoplanin,"patients with TDM 10–20 mg/L At 8-14d, N (%)",LR-A + MR-A,20(41.7)
same,"patients with TDM < 10 mg/L At 8-14d, N (%)",LR-A + MR-A,22(45.8)
same,"patients with TDM > 20 mg/L At 8-14d, N (%)",LR-A + MR-A,6(12.5)
same,TDM At 8-14d (teicoplanin trough concentration),[1],"10.4[7.3,17.8] mg/L"
same,"patients with TDM 10–20 mg/L At 8-14d, N (%)",LR-B + MR-A,25(53.2)
same,"patients with TDM < 10 mg/L At 8-14d, N (%)",LR-B + MR-A,16(34.0)
same,"patients with TDM > 20 mg/L At 8-14d, N (%)",LR-B + MR-A,6(12.8)
same,TDM At 8-14d (teicoplanin trough concentration),[2],"11.0[7.3,15.4] mg/L"
same,"patients with TDM 10–20 mg/L At 8-14d, N (%)",LR-B + MR-B,2(50.0)
same,"patients with TDM < 10 mg/L At 8-14d, N (%)",LR-B + MR-B,1(25.0)
same,"patients with TDM > 20 mg/L At 8-14d, N (%)",LR-B + MR-B,1(25.0)
same,TDM At 8-14d (teicoplanin trough concentration),[3],"12.8[9.0,21.5] mg/L"
same,"patients with TDM 10–20 mg/L At 8-14d, N (%)",LR-C + MR-B,8(57.2)
same,"patients with TDM < 10 mg/L At 8-14d, N (%)",LR-C + MR-B,5(35.7)
same,"patients with TDM > 20 mg/L At 8-14d, N (%)",LR-C + MR-B,1(7.1)
same,TDM At 8-14d (teicoplanin trough concentration),[4],"14.16[8.9,16.4] mg/L"
same,"patients with TDM 10–20 mg/L At 8-14d, N (%)",LR-C + MR-C,3(37.5)
same,"patients with TDM < 10 mg/L At 8-14d, N (%)",LR-C + MR-C,0
same,"patients with TDM > 20 mg/L At 8-14d, N (%)",LR-C + MR-C,5(62.5)
same,TDM At 8-14d (teicoplanin trough concentration),[5],"21.2[16.8,27.4] mg/L"
same,TDM At 8-14d (teicoplanin trough concentration),"all patients (N = 204), iv","11.1[8.5,17.6] mg/L"
same,"patients with TDM 10–20 mg/L At 3d, N (%)",LR-A + MR-A,0
same,"patients with TDM < 10 mg/L At 3d, N (%)",LR-A + MR-A,16(100)
same,"patients with TDM > 20 mg/L At 3d, N (%)",LR-A + MR-A,0
same,TDM At 3d (teicoplanin trough concentration),[1],"5.4[3.0,7.7] mg/L"
same,"patients with TDM 10–20 mg/L At 3d, N (%)",LR-B + MR-A,2(10.5)
same,"patients with TDM < 10 mg/L At 3d, N (%)",LR-B + MR-A,17(89.5)
same,"patients with TDM > 20 mg/L At 3d, N (%)",LR-B + MR-A,0
same,TDM At 3d (teicoplanin trough concentration),[2],"6.3[4.4,7.9] mg/L"
same,"patients with TDM 10–20 mg/L At 3d, N (%)",LR-B + MR-B,1(16.7)
same,"patients with TDM < 10 mg/L At 3d, N (%)",LR-B + MR-B,3(50.0)
same,"patients with TDM > 20 mg/L At 3d, N (%)",LR-B + MR-B,2(33.3)
same,TDM At 3d (teicoplanin trough concentration),[3],"11.1[8.1,22.2] mg/L"
same,"patients with TDM 10–20 mg/L At 3d, N (%)",LR-C + MR-B,5(62.5)
same,"patients with TDM < 10 mg/L At 3d, N (%)",LR-C + MR-B,3(37.5)
same,"patients with TDM > 20 mg/L At 3d, N (%)",LR-C + MR-B,0
same,TDM At 3d (teicoplanin trough concentration),[4],"11.0[7.0,13.3] mg/L"
same,"patients with TDM 10–20 mg/L At 3d, N (%)",LR-C + MR-C,7(50.0)
same,"patients with TDM < 10 mg/L At 3d, N (%)",LR-C + MR-C,3(21.4)
same,"patients with TDM > 20 mg/L At 3d, N (%)",LR-C + MR-C,4(28.6)
same,TDM At 3d (teicoplanin trough concentration),[5],"14.4[10.7,21.1] mg/L"
same,TDM At 3d (teicoplanin trough concentration),"all patients (N = 204), iv","7.7[5.6,12.4] mg/L"
same,target concentration achievement rate (≥ 10 mg/L),"TDM8-14d, LR-A + MR-A regimen",54.2%
same,target concentration achievement rate (≥ 10 mg/L),"TDM8-14d, LR-B + MR-A regimen",66.0%
same,target concentration achievement rate (≥ 10 mg/L),"TDM8-14d, LR-B + MR-B regimen",75.0%
same,target concentration achievement rate (≥ 10 mg/L),"TDM8-14d, LR-C + MR-C regimen",100%
same,target concentration achievement rate (≥ 10 mg/L),"TDM3d, LR-A + MR-A regimen",0%
same,target concentration achievement rate (≥ 10 mg/L),"TDM3d, LR-B + MR-A regimen",10.5%
same,target concentration achievement rate (≥ 10 mg/L),"TDM3d, LR-B + MR-B regimen",50.0%
same,target concentration achievement rate (≥ 10 mg/L),"TDM3d, LR-C + MR-B regimen",62.5%
same,target concentration achievement rate (≥ 10 mg/L),"TDM3d, LR-C + MR-C regimen",78.6%
same,target concentration achievement rate (≥ 10 mg/L),"TDM≤7d, LR-A + MR-A regimen",18.3%
same,target concentration achievement rate (≥ 10 mg/L),"TDM≤7d, LR-B + MR-A regimen",24.1%
same,target concentration achievement rate (≥ 10 mg/L),"TDM≤7d, LR-B + MR-B regimen",57.2%
same,target concentration achievement rate (≥ 10 mg/L),"TDM≤7d, LR-C + MR-B regimen",56.2%
same,target concentration achievement rate (≥ 10 mg/L),"TDM≤7d, LR-C + MR-C regimen",85.7%
same,target concentration achievement rate (≥ 10 mg/L),"TDM≥15d, LR-A + MR-A regimen",77.8%
same,target concentration achievement rate (≥ 10 mg/L),"TDM≥15d, LR-B + MR-A regimen",84.6%
